The values below are quoted from earlier work in publication PMC8991498 (Food Chemistry: Molecular Sciences, 2021).

For the series, the system named is Caco-2 cell monolayers.

As for YQEPVLGPVRGPFPIIV [β-casein fragment], the “Absorption of β-casein fragment” value (ref Regazzo et al. (2010)) was “could be absorbed mainly by transcytosis”. As to YWDHNNPQIR [RAP], the “Passage of RAP through Caco-2 cell monolayers” value (ref Xu et al. (2017)) is reported as “a percentage of this peptide managed to pass intact through the monolayer”.
